Assay type in all cases: binding
In data set [1] the test system is intact DENV particles (DENV-1, -2 and -3). Description: Cross-reactivity direct ELISA vs DENV serotypes. Particulars: all DENV serotypes, 10^5 copies/mL coating. The method, then:
(§1) To optimize all parameters of the direct ELISA protocol, Pierce 96-Well Polystyrene Plates, (ThermoFisher Scientific) were coated overnight at 4° C. with different concentrations of intact virus particles (ZIKV or DENV). The intact virus particles were diluted using 100 mM NaHCO3, pH 9.6, and aliquots of 100 μL were dispensed into each well of the plate using a multichannel pipette. This buffer pH assured a strong hydrophobic binding interaction between polystyrene and virus particles.
(§2) Intact particles both ZIKV and DENV were provided by Dr. Watkins group (University of Miami, Dep. of Pathology). The samples were controlled and counted by focus forming assay and RT-PCR, the details were reported in a previous work (Magnani et al., 2017). The Intact particles of ZIKV were inactivated using gamma irradiation. Assay biohazardous steps were carried out according to standard safety procedures.
(§3) After coating the plates overnight, the intact virus particles were removed by washing five times with the washing buffer (PBST) 10 mM PBS pH 7.4, 0.1% Tween-20, using an automated plate washer (MultiWash+, Molecular Devices, Sunnyvale, Calif.). Then, the plates were blocked with 200 μL of blocking buffers while shaking at 300 rpm at room temperature. The blocking buffers used were: Pierce™ Protein-Free (PBS) Blocking Buffer (PF), Blocker™ BLOTTO in TBS, SuperBlock™ Blocking Buffer, Blocker™ BSA (1×) in PBS. All blocking buffer were from ThermoFisher Scientific.
(§4) After 2 h the blocking buffers were removed using the same washing procedure mentioned above. 100 μL-aliquots of several dilutions of peptides biotinylated in 10 mM PBS pH 7.4 were placed in each well and incubated for 2 h while shaking at 300 rpm at room temperature. After the incubation, the unreacted peptides were removed by using the plate washer with the same settings. Then, 100 μL-aliquots of streptavidin-HRP (ThermoFisher Scientific) at a concentration of 20 ng/mL were added into each well and incubated for 30 min at room temperature without shaking. After the incubation, excess streptavidin-HRP was removed and the wells were washed with the plate washer five times using the washing buffer. Finally, 100 μL-aliquots of the Ultra TMB-ELISA Substrate Solution (ThermoFisher Scientific) were added and after 10 min the reaction was stopped by adding 100 μL aliquots of the TMB stop solution (SeraCare). The emission (450 nm) was read using a microplate reader (Clariostar Optima; BMG Labtech, Ortenberg, Germany).
The cross-reactivity among Flaviviruses is a key parameter to be tested for this assay. […]

Data set [2] has as its system intact ZIKV particles. Description: Direct ELISA vs intact ZIKV particles. The procedure: Before biotin functionalization, peptides stock solution was reduced using trialkylphosphine (TCEP) from ThermoFisher Scientific (www.thermofisher.com) and after 1 h the gel was removed using TCEP gel spin separation columns (ThermoFisher Scientific). Then, 2-fold molar excess of EZ-Link™ Maleimide-PEG2-Biotin (ThermoFisher Scientific) was added to purified peptide solution and incubated for 1 h. […] Therefore, no further separation was carried out.
as §1, §2, §3, §4
The corresponding blank signals in triplicates were obtained by using all reagents without peptides. The blank signal was then subtracted to the average absorbance values for triplicate wells of each test.
The eight clamp peptides and the four mono-arm peptides selected, were tested vs intact ZIKV particles by using a direct ELISA. The peptides were biotinylated by using the maleimide-PEG2-biotin reagent that reacts with the sulfhydryl group of the cysteine efficiently and specifically by forming a stable thioether bond. The antibody 4G2 hybridoma mouse IgG2a was used as the reference and employed in combination with an anti-mouse IgG conjugated to HRP.
All analytical parameters involved in the development of ELISA were optimized by using 96-well plates coated with triplicate 10-fold serial dilutions of intact ZIKV particles.
Thus, the peptide concentrations reported in Table 5 were used to estimate the dynamic range and the LOD of the assay by using 10-fold serial dilutions of intact ZIKV particles from 10^^1 to 10^^8 copies/mL. […]
A general note: An ELISA detects its analyte on a solid surface through an enzyme-linked reagent.

In data set [3] the test system is intact ZIKV particles. Description: Direct ELISA matrix effect in urine and serum. As to conditions: urine 1:1, serum 1:10 diluted; 10^5 and 10^6 copies/mL ZIKV. The procedure:
Usually, the presence of ZIKV in affected bodies is detected in biological fluids. Therefore, the analytical sensitivity of the selected peptides was tested in two biological matrices, namely, urine and serum. The matrix effect was investigated to understand how real biological fluids could modify the binding efficiency of the peptides.
FIG. 4 depicts the ELISA data using solutions of peptides with or without the urine and serum obtained coating clear 96-well plates with 10^^5 and 10^^6 copies/mL of intact ZIKV particles. Urine and serum were 1:1 and 1:10 diluted, respectively, with a concentrated peptide PBS solution (10 mM PBS, pH 7.4) to obtain a peptide final concentration of 0.5 μM for C3 and C6, 5 μM for C7 and 20 μM for mono-arm peptides (P2 and X1).

Where only a bound is given, the exact number is not on record here.

With “C3: clamp peptide WPWIGT (18) - bridge GPGCCGPG (32) - KRNATP (26) (WPWIGTGPGCCGPGKRNATP; C3 Binds to Active Site 2; Bridge peptide; C3 Binds to Active Site 1)”, the “signal decrease DENV vs ZIKV” value in data set [1] is “around 70%”. In addition, in the data set with intact ZIKV particles [2] (LOD=SB+3×SDB, interpolated from calibration curve), the LOD was 3.5 log[ZIKV], copies/mL. For the same substance, in the data set with intact ZIKV particles [2] (delta absorbance 450 nm), the FPLR maximum was 0.67 ΔA and the FPLR minimum is 0.05 ΔA. The Long-term stability in the data set on intact ZIKV particles [2] (dose-response performance of the assay) is given as more than 1 Month. In the data set on intact ZIKV particles [2] (four-parameter logistic fit), the “FPLR C50” value is 5.3 log[ZIKV], copies/mL and the FPLR slope is 8.7. For the same substance, in the data set on intact ZIKV particles [2] (in words), the “dynamic range of dose-response curve (orders of magnitude)” value is “three-order of magnitude”. For the same substance, the “FPLR Dynamic Range” value in the data set on intact ZIKV particles [2] (optimized peptide concentration of Table 5 (0.5-20 μM; 4G2 1 μg/ml)) is 4-7 log[ZIKV], copies/mL. Besides, in the data set on intact ZIKV particles [3], the “ELISA performance in urine and serum” value is on record as “better performance in urine than serum”.

The values are drawn from patent US11830582B2, “Methods of designing novel antibody mimetics for use in detecting antigens and as therapeutic agents” (UNIVERSITY OF MIAMI, priority 2018, dated 2023).
